Assay results published in patent US6461997B1, “Triazole sulfones having herbicidal activity” (Monsanto Technology LLC, priority 1999, dated 2002).

What was measured:
POLCO (wild buckwheat) = assay: Pre-plant incorporated (PPI) herbicidal activity, cool season; type: in vivo, Polygonum convolvulus; conditions: for Percent inhibition POLCO: weed, PPI application; for PPI activity GR80, POLCO: pre-plant incorporated, lowest tested rate with 80% or greater inhibition, about 14 days
Method: (§1) In another set of tests, the pre-plant incorporated (PPI) activity of compounds of this invention was evaluated on the same species as for the pre-emergence tests described above. In the PPI tests the following procedure, designed to simulate PPI application, was used.
(§2) A pre-prepared topsoil mixture (described above) was placed in a pot and compacted to a depth of 1.0 to 1.25 cm from the top of the pot. Seeds of each of several monocotyledonous and dicotyledonous annual plant species were placed on top of the soil. A sufficient quantity of soil to cover the seeds and level fill the pot was weighed into an open container. A known amount of the test compound was dissolved or suspended in an organic solvent and applied by spraying to this cover soil. The cover soil was thoroughly mixed to distribute the test compound throughout the cover soil, and was then applied as a cover layer over the seeds. Untreated soil was used as a cover layer for control pots. After treatment the plants were placed in a greenhouse where they received 0.64 cm of overhead irrigation. All subsequent watering consisted of a light overhead mist and/or subirrigation as needed for germination and growth. Tables 9 and 10 below relate to warm season plant species which were placed after pre-emergence treatment in a greenhouse with a 30/21° C. day/night temperature regime. Tables 11 and 12 below relates to cool season plant species placed after pre-emergence treatment in a greenhouse or growth chamber with an 18/13° C. day/night temperature regime. Only the compounds of Examples 1, 6, 8, 11, 13 and 15-20 were included in PPI tests.
(§3) Approximately 14 days after planting and treating, the plants were observed and herbicidal efficacy recorded as percent inhibition by comparison with untreated plants.

SASKR (russian thistle) = assay: Pre-emergence herbicidal activity, cool season; type: in vivo, Salsola kali; conditions: lowest tested rate with 80% or greater inhibition; rates 300, 100, 30, 10 g/ha; about 14 days
Summary of the method: (§4)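 Seeds sown in sterilised fertilised topsoil received surface-applied compound in 50:50 acetone/water, typically at 300, 100, 30 and 10 g/ha, then greenhouse-grown at 30/21° C (warm-season species) or 18/13° C (cool-season species). Percent inhibition versus untreated plants was scored at about 14 days, giving GR80; an asterisk marks activity short of 80% at the top rate.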

[1] = tested on: CHEAL (common lambsquarters); assay: Pre-emergence herbicidal activity, warm season; type: in vivo, Chenopodium album; conditions: GR80 = lowest tested rate (300, 100, 30, 10 g/ha) with 80% or greater inhibition; approx. 14 days after treating; 30/21° C.
Summary of the method: as §4

SETVI (green foxtail) = assay: Pre-plant incorporated (PPI) herbicidal activity, cool season; type: in vivo, Setaria viridis; conditions: for Percent inhibition SETVI: weed, PPI application; for PPI activity GR80, SETVI: pre-plant incorporated, lowest tested rate with 80% or greater inhibition, about 14 days
Method: as §1, §2, §3

PANDI (fall panicum) = assay: Pre-plant incorporated (PPI) herbicidal activity, warm season; type: in vivo, Panicum dichotomiflorum; conditions: for Percent inhibition PANDI: PPI application; for PPI activity GR80, PANDI: pre-plant incorporated, lowest tested rate with 80% or greater inhibition, about 14 days
Method: as §1, §2, §3

ALOMY (blackgrass) = assay: Pre-plant incorporated (PPI) herbicidal activity, cool season; type: in vivo, Alopecurus myosuroides; conditions: for Percent inhibition ALOMY: weed, PPI application; for PPI activity GR80, ALOMY: pre-plant incorporated, lowest tested rate with 80% or greater inhibition, about 14 days
Method: as §1, §2, §3

AVEFA (wild oat) = assay: as above; type: in vivo, Avena fatua; conditions: for Percent inhibition AVEFA: weed, PPI application; for PPI activity GR80, AVEFA: pre-plant incorporated, lowest tested rate with 80% or greater inhibition, about 14 days
Method: as §1, §2, §3

LOLMG (annual ryegrass) = assay: Post-emergence herbicidal activity, cool season; type: in vivo, Lolium multiflorum; conditions: abraded plants sprayed at 300, 100, 30 and 10 g/ha; about 14 days after treatment
Method: In another set of tests, the post-emergence activity of compounds of this invention was evaluated on the cool season species listed above. The following procedure was used.
A pre-prepared topsoil mixture (described above) was placed in a pot and compacted to a depth of 1.0 to 1.25 cm from the top of the pot. Seeds of each of several monocotyledonous and dicotyledonous annual plant species were placed on top of the soil. The seeds were covered with a mixture of 50% topsoil and 50% Rediearth™ in sufficient quantity to level-fill the pots. The pots were then placed on a greenhouse bench and subirrigated as needed.
When plants growing from the seeds had emerged and reached a suitable growth stage for post-emergence treatment, typically 9 to 14 days after planting, above-ground parts of the plants were subjected to a pre-treatment involving abrasion to create greater opportunity for foliar uptake of subsequently applied compounds. Abrasion was performed using garnet 200w particles applied with a Sears Craftsman hand-held sandblaster operated at approximately 850 kPa (50 psig) pressure.
A known amount of each test compound dissolved or suspended in an appropriate organic solvent was diluted with a 50:50 mix of acetone and water and applied to the plants by spraying with a standard spray nozzle in a spray volume of […] at a spray pressure of 511 kPa (30 psig). Only the compounds of Examples 1, 8-15 and 17-22 were included in post-emergence tests. Application rates for these compounds were 300, 100, 30 and 10 g/ha. Control plants were abraded but not sprayed.
After treatment the plants were placed in a greenhouse with an 18/13° C. day/night temperature regime and were subsequently watered as needed for growth. Approximately 14 days after treatment, the plants were observed and herbicidal efficacy recorded as percent inhibition by comparison with control plants. GR80 values were assigned for each compound as described above for the pre-emergence tests.

| SMILES | Percent inhibition POLCO (POLCO (wild buckwheat); 30 g/ha) | Percent inhibition POLCO (POLCO (wild buckwheat); 100 g/ha) | Percent inhibition POLCO (POLCO (wild buckwheat); 300 g/ha) | Percent inhibition POLCO (POLCO (wild buckwheat); 900 g/ha) | Pre-emergence activity GR80, SASKR (SASKR (russian thistle)) | Pre-emergence activity (GR80) CHEAL [1] | Percent inhibition SETVI (SETVI (green foxtail); 30 g/ha) | Percent inhibition SETVI (SETVI (green foxtail); 100 g/ha) | Percent inhibition SETVI (SETVI (green foxtail); 300 g/ha) | Percent inhibition SETVI (SETVI (green foxtail); 900 g/ha) | Percent inhibition PANDI (PANDI (fall panicum); 30 g/ha) | Percent inhibition PANDI (PANDI (fall panicum); 100 g/ha) | Percent inhibition PANDI (PANDI (fall panicum); 300 g/ha) | Percent inhibition PANDI (PANDI (fall panicum); 900 g/ha) | Percent inhibition ALOMY (ALOMY (blackgrass); 30 g/ha) | Percent inhibition ALOMY (ALOMY (blackgrass); 100 g/ha) | Percent inhibition ALOMY (ALOMY (blackgrass); 300 g/ha) | Percent inhibition ALOMY (ALOMY (blackgrass); 900 g/ha) | Percent inhibition AVEFA (AVEFA (wild oat); 30 g/ha) | Percent inhibition AVEFA (AVEFA (wild oat); 100 g/ha) | further results |
| --- | --- | --- | --- | --- | --- | --- | --- | --- | --- | --- | --- | --- | --- | --- | --- | --- | --- | --- | --- | --- | --- |
| CCN(CC)C(=O)n1cnc(S(=O)(=O)C(F)(F)F)n1 [Example 2] | 40% | 40% | 65% | 100% | 100 g/ha | 100 g/ha | 80% | 100% | 100% | 100% | 100% | 100% | 100% | 100% | 50% | 90% | 100% | 100% | 0% | 10% | Percent inhibition AVEFA (AVEFA (wild oat); 300 g/ha): 20%; Percent inhibition AVEFA (AVEFA (wild oat); 900 g/ha): 50% |
| CCN(CC)C(=O)n1cnc(S(=O)(=O)C(F)(F)Cl)n1 [Example 3] | 60% | 70% | 90% | 100% | [empty] | 100 g/ha | 100% | 100% | 100% | 100% | 80% | 100% | 100% | 100% | 60% | 90% | 99% | 100% | 20% | 40% | Percent inhibition AVEFA (AVEFA (wild oat); 300 g/ha): 100%; Percent inhibition AVEFA (AVEFA (wild oat); 900 g/ha): 80% |
| CCN(CC)C(=O)n1cnc(S(=O)(=O)C(F)(F)C(F)(F)Br)n1 [Example 4] | 0% | 60% | 90% | 100% | 30 g/ha | 30 g/ha | 99% | 100% | 100% | 100% | 0% | 100% | 100% | 100% | 70% | 95% | 100% | 100% | 10% | 10% | Percent inhibition AVEFA (AVEFA (wild oat); 300 g/ha): 50%; Percent inhibition AVEFA (AVEFA (wild oat); 900 g/ha): 100% |
| CCN(CC)C(=O)n1cnc(S(=O)(=O)C(F)(F)C(=O)c2ccccc2)n1 [Example 6] | – | – | – | – | [empty] | 300 g/ha | – | – | – | – | – | – | – | – | – | – | – | – | – | – | PPI activity GR80, POLCO (POLCO (wild buckwheat)): 300 g/ha; PPI activity GR80, SETVI (SETVI (green foxtail)): 300 g/ha; PPI activity GR80, PANDI (PANDI (fall panicum)): 100 g/ha; PPI activity GR80, ALOMY (ALOMY (blackgrass)): 300 g/ha; PPI activity GR80, AVEFA (AVEFA (wild oat)): 300 g/ha |
| CCN(CC)C(=O)n1cnc(S(=O)(=O)C(F)(F)C(F)(F)SC)n1 [Example 14] | – | – | – | – | [empty] | 300 g/ha | – | – | – | – | – | – | – | – | – | – | – | – | – | – | Post-emergence activity GR80, LOLMG (LOLMG (annual ryegrass)): [empty] |
| CCN(CC)C(=O)n1cnc(S(=O)(=O)C(F)F)n1 [Example 15, 1-(N,N-diethylcarbamoyl)-3-(difluoromethylsulfonyl)-1,2,4-triazole] | – | – | – | – | – | – | – | – | – | – | – | – | – | – | – | – | – | – | – | – | Post-emergence activity GR80, LOLMG (LOLMG (annual ryegrass)): [empty]; PPI activity GR80, POLCO (POLCO (wild buckwheat)): 300 g/ha; PPI activity GR80, SETVI (SETVI (green foxtail)): 100 g/ha; PPI activity GR80, PANDI (PANDI (fall panicum)): 100 g/ha; PPI activity GR80, ALOMY (ALOMY (blackgrass)): 100 g/ha; PPI activity GR80, AVEFA (AVEFA (wild oat)): 300 g/ha |
| CCN(CC)C(=O)n1cnc(S(=O)(=O)C(F)(F)C(F)F)n1 [Example 16] | 0% | 0% | 0% | 95% | 100 g/ha | 300 g/ha | 80% | 95% | 100% | 100% | 100% | 100% | 100% | 100% | 95% | 100% | 100% | 100% | 0% | 0% | PPI activity GR80, POLCO (POLCO (wild buckwheat)): 100 g/ha; Percent inhibition POLCO (POLCO (wild buckwheat); 10 g/ha): 0%; PPI activity GR80, SETVI (SETVI (green foxtail)): 10 g/ha; Percent inhibition SETVI (SETVI (green foxtail); 10 g/ha): 100%; Percent inhibition PANDI (PANDI (fall panicum); 10 g/ha): 0%; PPI activity GR80, PANDI (PANDI (fall panicum)): 10 g/ha; PPI activity GR80, ALOMY (ALOMY (blackgrass)): 30 g/ha; Percent inhibition ALOMY (ALOMY (blackgrass); 10 g/ha): 40%; PPI activity GR80, AVEFA (AVEFA (wild oat)): 300 g/ha; Percent inhibition AVEFA (AVEFA (wild oat); 10 g/ha): 0%; Percent inhibition AVEFA (AVEFA (wild oat); 300 g/ha): 80%; Percent inhibition AVEFA (AVEFA (wild oat); 900 g/ha): 90% |
